Tests used:
[1] = biological target: Trypsin (Homo sapiens, UniProt P07477+P07478+P35030); assay: Inhibitory activity against human trypsin (using Chromozym TH as the substrate); type: protein assay
[2] = biological target: Prothrombin (Homo sapiens, UniProt P00734); assay: Inhibitory activity against human thrombin (using Chromozym TH as the substrate)

Compound | Ki [1] [nM] | Ki [2] [nM]
N=C(N)NS(=O)(=O)c1ccc(NC(=O)[C@@H](Cc2ccccc2)NC(=O)OCc2ccccc2)cc1 | 1285 | 54
CN(C)S(=O)(=O)N=C(N)N | 2890 | 
Cc1ccc(S(=O)(=O)NC(=O)N[C@@H](Cc2ccccc2)C(=O)N2CCCC2C(=O)Nc2ccc(S(=O)(=O)N=C(N)N)cc2)cc1 (some centres undefined) | 1315 | 12
CN(C)c1ccc(/N=N/c2ccc(S(=O)(=O)N=C(N)N)cc2)cc1 | 1245 | 134
N=C(N)NCCCNC(=O)[C@@H]1CCCCN1C(=O)C(CC1CCCCC1)NCC(=O)O (some centres undefined) | 540 | 
N=C(N)NNS(=O)(=O)c1ccc(I)cc1 | 1300 | 177
N=C(N)NNS(=O)(=O)c1ccc2ccccc2c1 | 1285 | 129
N=C(N)NNS(=O)(=O)c1ccc([N+](=O)[O-])c(Cl)c1 | 1010 | 154
N=C(N)NS(=O)(=O)C(F)(F)F | 1275 | 890
Cc1ccc(S(=O)(=O)NC(=O)NCC(=O)N[C@@H](Cc2c[nH]cn2)C(=O)Nc2ccc(S(=O)(=O)N=C(N)N)cc2)cc1 | 1455 | 18
CN(C)c1cccc2c(S(=O)(=O)NN=C(N)N)cccc12 | 1200 | 130
N=C(N)NNS(=O)(=O)c1cccc2ccccc12 | 1200 | 125
COC(=N)NS(=O)(=O)c1ccc(NC(=O)C2CCCN2C(=O)[C@H](Cc2ccccc2)NC(=O)NS(=O)(=O)c2ccc(C)cc2)cc1 (some centres undefined) | 1420 | 18
Cc1cc(C)c(S(=O)(=O)NN=C(N)N)c(C)c1 | 1100 | 219
N=C(N)NS(=O)(=O)c1c(F)c(F)c(F)c(F)c1F | 1350 | 146
N=C(N)NNS(=O)(=O)c1ccc(NC(=O)C2CCCN2C(=O)[C@H](Cc2ccccc2)NC(=O)OCc2ccccc2)cc1 (some centres undefined) | 1400 | 
N=C(N)NS(=O)(=O)Cc1ccccc1 | 1350 | 330
N=C(N)NNS(=O)(=O)c1ccc(Cl)cc1 | 1100 | 212
COc1ccc(S(=O)(=O)NN=C(N)N)cc1N | 1100 | 219

More lines, now with the values ahead:

Ki [1] [nM] | Ki [2] [nM] | Compound
990 | 166 | N=C(N)NNS(=O)(=O)c1ccc([N+](=O)[O-])cc1
990 | 160 | N=C(N)NS(=O)(=O)c1ccc([N+](=O)[O-])c(Cl)c1
1350 | 169 | COC(=N)NS(=O)(=O)c1ccc(/N=N/c2ccc(N(C)C)cc2)cc1
1425 | 62 | COC(=N)NS(=O)(=O)c1ccc(NC(=O)[C@@H](Cc2ccccc2)NC(=O)OCc2ccccc2)cc1
1230 | 220 | N=C(N)NS(=O)(=O)c1ccc(Br)cc1
1025 | 172 | CC(=O)Nc1ccc(S(=O)(=O)NN=C(N)N)cc1
1375 | 138 | COC(=N)NS(=O)(=O)c1cccc2c(N(C)C)cccc12
1445 | 240 | N=C(N)NS(=O)(=O)c1ccccc1C(=O)O
1335 | 97 | N=C(N)NNS(=O)(=O)c1ccc(C(=O)O)cc1
1375 | 213 | COC(=N)NS(=O)(=O)c1cccc([N+](=O)[O-])c1
1235 | 189 | COC(=N)NS(=O)(=O)c1ccc([N+](=O)[O-])cc1
1340 | 133 | COC(=N)NS(=O)(=O)c1ccc(C(=O)O)cc1
1145 | 107 | N=C(N)NS(=O)(=O)c1cccc(N)c1
1235 | 104 | N=C(N)NS(=O)(=O)c1ccc(C(=O)O)cc1
1200 | 280 | COC(=N)NS(=O)(=O)c1ccc(F)cc1
1090 | 240 | N=C(N)NS(=O)(=O)c1ccc(F)cc1
1785 | 348 | COC(=N)NS(=O)(=O)c1c(C)cc(C)cc1C

Source: ChEMBL document CHEMBL1132933, “Protease inhibitors: synthesis and QSAR study of novel classes of nonbasic thrombin inhibitors incorporating sulfonylguanidine and O-methylsulfonylisourea moieties at P1” (J Med Chem, 2000)
